Experimental data taken from PubChem BioAssay AID1259407 (Chemical Carcinogenesis Research Information System (CCRIS), 2018).
The source made the active and inactive calls. No rule for the calls is given here.

System: CCRIS mutagenicity, Ames/micronucleus/aberration tests
Experiment: CCRIS mutagenicity studies
[1] = Test System: AMES SALMONELLA TYPHIMURIUM, Strain/Indicator: TA98, Metabolic Activation: HAMSTER, LIVER, S-9, AROCLOR 1254 (10%), Method: PREINCUBATION
[2] = Test System: AMES SALMONELLA TYPHIMURIUM, Strain/Indicator: TA98, Metabolic Activation: NONE, Method: PREINCUBATION
[3] = Test System: AMES SALMONELLA TYPHIMURIUM, Strain/Indicator: TA98, Metabolic Activation: RAT, LIVER, S-9, AROCLOR 1254 (10%), Method: PREINCUBATION
[4] = Test System: AMES SALMONELLA TYPHIMURIUM, Strain/Indicator: TA100, Metabolic Activation: HAMSTER, LIVER, S-9, AROCLOR 1254 (10%), Method: PREINCUBATION
[5] = Test System: AMES SALMONELLA TYPHIMURIUM, Strain/Indicator: TA100, Metabolic Activation: NONE, Method: PREINCUBATION
[6] = Test System: AMES SALMONELLA TYPHIMURIUM, Strain/Indicator: TA100, Metabolic Activation: RAT, LIVER, S-9, AROCLOR 1254 (10%), Method: PREINCUBATION
[7] = Test System: AMES SALMONELLA TYPHIMURIUM, Strain/Indicator: TA1535, Metabolic Activation: HAMSTER, LIVER, S-9, AROCLOR 1254 (10%), Method: PREINCUBATION
[8] = Test System: AMES SALMONELLA TYPHIMURIUM, Strain/Indicator: TA1535, Metabolic Activation: NONE, Method: PREINCUBATION
[9] = Test System: AMES SALMONELLA TYPHIMURIUM, Strain/Indicator: TA1535, Metabolic Activation: RAT, LIVER, S-9, AROCLOR 1254 (10%), Method: PREINCUBATION
[10] = Test System: MOUSE LYMPHOMA, Strain/Indicator: L5178Y (TK+/TK-), Metabolic Activation: NONE, Method: SUSPENSION/PLATE
[11] = Test System: MOUSE LYMPHOMA, Strain/Indicator: L5178Y (TK+/TK-), Metabolic Activation: RAT, LIVER, S-9, AROCLOR 1254, Method: SUSPENSION/PLATE
[12] = Test System: AMES SALMONELLA TYPHIMURIUM, Strain/Indicator: TA100, Metabolic Activation: NONE, Method: STANDARD PLATE

Measured: mutagenic call

Nc1ccccc1Cl
inactive: Test System: AMES SALMONELLA TYPHIMURIUM, Strain/Indicator: TA97, Metabolic Activation: HAMSTER, LIVER, S-9, AROCLOR 1254 (10%), Method: PREINCUBATION inactive; negative | Test System: AMES SALMONELLA TYPHIMURIUM, Strain/Indicator: TA97, Metabolic Activation: HAMSTER, LIVER, S-9, AROCLOR 1254 (30%), Method: PREINCUBATION inactive; negative | Test System: AMES SALMONELLA TYPHIMURIUM, Strain/Indicator: TA97, Metabolic Activation: NONE, Method: PREINCUBATION inactive; negative | Test System: AMES SALMONELLA TYPHIMURIUM, Strain/Indicator: TA97, Metabolic Activation: RAT, LIVER, S-9, AROCLOR 1254 (10%), Method: PREINCUBATION inactive; negative | Test System: AMES SALMONELLA TYPHIMURIUM, Strain/Indicator: TA97, Metabolic Activation: RAT, LIVER, S-9, AROCLOR 1254 (30%), Method: PREINCUBATION inactive; negative | [1] inactive; negative | Test System: AMES SALMONELLA TYPHIMURIUM, Strain/Indicator: TA98, Metabolic Activation: HAMSTER, LIVER, S-9, AROCLOR 1254 (30%), Method: PREINCUBATION inactive; negative | [2] inactive; negative | [3] inactive; negative | Test System: AMES SALMONELLA TYPHIMURIUM, Strain/Indicator: TA98, Metabolic Activation: RAT, LIVER, S-9, AROCLOR 1254 (30%), Method: PREINCUBATION inactive; negative | [4] inactive; negative | Test System: AMES SALMONELLA TYPHIMURIUM, Strain/Indicator: TA100, Metabolic Activation: HAMSTER, LIVER, S-9, AROCLOR 1254 (30%), Method: PREINCUBATION inactive; negative | [5] inactive; negative | [6] inactive; negative | Test System: AMES SALMONELLA TYPHIMURIUM, Strain/Indicator: TA100, Metabolic Activation: RAT, LIVER, S-9, AROCLOR 1254 (30%), Method: PREINCUBATION inactive; negative | [7] inactive; negative | Test System: AMES SALMONELLA TYPHIMURIUM, Strain/Indicator: TA1535, Metabolic Activation: HAMSTER, LIVER, S-9, AROCLOR 1254 (30%), Method: PREINCUBATION inactive; negative | [8] inactive; negative | [9] inactive; negative | Test System: AMES SALMONELLA TYPHIMURIUM, Strain/Indicator: TA1535, Metabolic Activation: RAT, LIVER, S-9, AROCLOR 1254 (30%), Method: PREINCUBATION inactive; negative | Test System: CHINESE HAMSTER V-79, Strain/Indicator: V-79/OUABAIN, Metabolic Activation: NONE, Method: SUSPENSION/PLATE inactive; negative | [10] inactive; negative | Test System: UDS RODENT HEPATOCYTES, Strain/Indicator: THY INCORP (NON-S-PHASE), Metabolic Activation: NONE, Method: AUTORADIOGRAPHY inactive; negative
active: Test System: CHINESE HAMSTER V-79, Strain/Indicator: V-79/8-AZAGUANINE, Metabolic Activation: NONE, Method: SUSPENSION/PLATE active; positive | [11] active; positive

N/C(=N\O)c1ccc([N+](=O)[O-])o1
active: [12] active; positive

c1cnc2c(c1)ccc1cccnc12
inactive: [1] inactive; negative | [2] inactive; negative | [3] inactive; negative | [4] inactive; negative | [5] inactive; negative | [6] inactive; negative | Test System: AMES SALMONELLA TYPHIMURIUM, Strain/Indicator: TA100, Metabolic Activation: RAT, LIVER, S-9, PHENOBARBITAL AND 5,6-BENZOFLAVONE, Method: PREINCUBATION inactive; negative | [7] inactive; negative | [8] inactive; negative | [9] inactive; negative | Test System: AMES SALMONELLA TYPHIMURIUM, Strain/Indicator: TA1537, Metabolic Activation: HAMSTER, LIVER, S-9, AROCLOR 1254 (10%), Method: PREINCUBATION inactive; negative | Test System: AMES SALMONELLA TYPHIMURIUM, Strain/Indicator: TA1537, Metabolic Activation: NONE, Method: PREINCUBATION inactive; negative | Test System: AMES SALMONELLA TYPHIMURIUM, Strain/Indicator: TA1537, Metabolic Activation: RAT, LIVER, S-9, AROCLOR 1254 (10%), Method: PREINCUBATION inactive; negative
active: [10] active; positive. reevaluation of results: positive | [11] active; positive. reevaluation of results: positive

O=[N+]([O-])C1=Cc2c3ccc4ccccc4c3cc3cccc1c23
inactive: [12] inactive; negative | Test System: AMES SALMONELLA TYPHIMURIUM, Strain/Indicator: TA100, Metabolic Activation: RAT, LIVER, S-9, AROCLOR 1254, Method: STANDARD PLATE inactive; negative | Test System: AMES SALMONELLA TYPHIMURIUM, Strain/Indicator: TA1535, Metabolic Activation: NONE, Method: STANDARD PLATE inactive; negative | Test System: AMES SALMONELLA TYPHIMURIUM, Strain/Indicator: TA1535, Metabolic Activation: RAT, LIVER, S-9, AROCLOR 1254, Method: STANDARD PLATE inactive; negative | Test System: AMES SALMONELLA TYPHIMURIUM, Strain/Indicator: TA1538, Metabolic Activation: RAT, LIVER, S-9, AROCLOR 1254, Method: STANDARD PLATE inactive; negative
active: Test System: AMES SALMONELLA TYPHIMURIUM, Strain/Indicator: TA98, Metabolic Activation: NONE, Method: STANDARD PLATE active; positive | Test System: AMES SALMONELLA TYPHIMURIUM, Strain/Indicator: TA98, Metabolic Activation: RAT, LIVER, S-9, AROCLOR 1254, Method: STANDARD PLATE active; positive | Test System: AMES SALMONELLA TYPHIMURIUM, Strain/Indicator: TA1537, Metabolic Activation: NONE, Method: STANDARD PLATE active; positive | Test System: AMES SALMONELLA TYPHIMURIUM, Strain/Indicator: TA1537, Metabolic Activation: RAT, LIVER, S-9, AROCLOR 1254, Method: STANDARD PLATE active; positive | Test System: AMES SALMONELLA TYPHIMURIUM, Strain/Indicator: TA1538, Metabolic Activation: NONE, Method: STANDARD PLATE active; positive
